Here are results for three compounds from patent publication US8557823B2, “Family of PFKFB3 inhibitors with anti-neoplastic activities” (Advanced Cancer Therapeutics, LLC, priority 2007, dated 2013).

≈ marks a conversion by molar mass, not a printed value.

A short description of series [1]: Solubility in dosing solution Cre:EtOH:Saline. The format is physicochemical. To be noted: Cremophor:EtOH:Saline 5:5:90, aqueous with cosolvent or surfactant or cyclodextrin, kinetic from dmso stock; 5:5:90 Cremophor:EtOH:Saline, after 24 hours at room temperature. The text has this:
Chemical properties of the compounds of the invention were investigated, mainly the solubility in several solvents and pharmaceutically accepted excipients or dosing solutions and the stability of these solutions. […] The increase in solubility when comparing the effect of chemical substituents is unpredictable and surprising if one compares the solubility values of PFK-070 to PFK-091 and PFK-070 to PFK-141 and 145 in a dosing solution that could be used to treat cancer patients (See Table 8A below). Briefly, selected compounds of the invention are dissolved in a small volume of the solvents/excipients of interest (Cremophor, or Cremophor:etoh or Tween80:etoh) at room temperature and diluted 1:9 in saline and left at room temperature for over 8 or 24 hours. Both the physical (absence of a precipitate) and the chemical stability (less than 5% degradation) of the solutions are measured (observation and HPLC after filtration).

A further series concerns MiaPaca. As to the kind of experiment: MTT assay 48 hours, MiaPaca. It is filed as cell-based. The following applies: Homo sapiens, MIA PaCa-2. As to the method: (§1) The ability of the compounds described herein to kill or inhibit the proliferation of cancer cells was measured using either the MTT assay, the Alamar Blue assay, or the Cell Titer Glow® assay using 48 or 72 hours exposure. […] The procedures are briefly described below. Cells of the desired tumor cell line were plated at 2×10^5 cells/ml in 96 well plates. Twice the indicated concentrations of the compounds of the invention were added to cells the following day in an equal volume of media. 72 hours later, cells were lysed and subjected to ATP determination using the CellTiter Glo-Luminescent Cell Viability Assay kit (Promega, Madison, Wis.). Experiments were done in triplicate. When using the MTT assay or the Alamar blue assay, the experimental conditions are essentially similar; at the end of the incubation period, 20 microl of the MTT solution is added per well and the samples are incubated for an additional four hours, rinsed and the absorbance at 570 nm measured. Results for the inhibition of cells proliferation are reported as IC50 as commonly done (the concentration leading to a 50% inhibition of proliferation of the cell population) and are listed in the Tables below. Table 4 lists the IC50 for the compounds of the invention in several cell lines including Jurkat, Calu-6, NCI-H82, U937, or NCI-H1437 cancer cell lines. Table 5 lists the IC50 of PFK-070 in a panel of 10 cell lines.
For orientation: Tetrazolium assays rely on reduction of a dye to a coloured formazan, in cell work by metabolically active cells.

Another series has as its system U937. As to the kind of experiment: Cancer cell proliferation, Alamar Blue assay 72 hours, U937. The format is cell-based. To be noted: Homo sapiens, U-937. How it is done: as §1
Another series has as its system CT26. As to the kind of experiment: MTT assay 48 hours, CT26. To be noted: Mus musculus. The format is cell-based, murine. How it is done: as §1
In another series the test system is Calu-6. Nature of the series: Cancer cell proliferation, Alamar Blue assay 72 hours, Calu-6. The format is cell-based. The following applies: Homo sapiens. As to the method:
as §1
On the technique in general: Resazurin is reduced to fluorescent resorufin, in cell work by metabolically active cells.

The next series deals with SK-BR-3. Nature of the series: MTT assay 48 hours, SK-BR-3. The following applies: Homo sapiens, SK-BR-3, MTT assay. It is filed as cell-based. How it is done: as §1
A further series concerns NCI-H82. Nature of the series: Cancer cell proliferation, Alamar Blue assay 72 hours, NCI-H82. The format is cell-based. The following applies: Homo sapiens. As to the method: as §1
The test system of another series is Jurkat cells. As to the kind of experiment: Inhibition of 2-deoxyglucose uptake, Example 14. It is filed as cell-based. The following applies: Homo sapiens, 3 hours. How it is done:
Inhibition of PFKFB3 results in inhibiting glycolysis. Several feedback or feedforward activation and inhibition mechanisms exist so that, by a feedback mechanism, inhibiting the activity of PFKFB3 might inhibit glucose uptake by cells. An assay was developed to determine if there was inhibition of glucose uptake following exposure to the compounds on the invention. Briefly, Jurkat cells were plated at 1×10^5/mL in RPMI 1640 supplemented with 10% fetal bovine serum and 50 μg/mL gentamicin sulfate. Cells were immediately treated with vehicle or 0.5 μmol/L of the compound of the invention for 3 hours and subsequently placed in glucose-free RPMI 1640 for 30 min. ^14C-2-deoxyglucose (0.25 μCi/mL; Perkin Elmer) was added for an additional 60 min and cells were then washed three times with ice-cold RPMI 1640 containing no glucose. Cell lysates were collected in 500 μL of 0.1% SDS, and scintillation counts (counts/min) were measured on 400 μL of lysate. Counts were normalized to protein concentration.

The next series has as its system A549. As to the kind of experiment: MTT assay 48 hours, A549. The format is cell-based. The following applies: Homo sapiens. As to the method: as §1
The test system of a further series is SK-N-SH. As to the kind of experiment: MTT assay 48 hours, SK-N-SH. The format is cell-based. To be noted: Homo sapiens. How it is done:
as §1

Another series relates to Jurkat. As to the kind of experiment: Cancer cell proliferation, Alamar Blue assay 72 hours, Jurkat. It is filed as cell-based. To be noted: Homo sapiens, Jurkat, 72 h. How it is done: as §1
Another series relates to BT474. Nature of the series: MTT assay 48 hours, BT474. The following applies: Homo sapiens, BT-474. The format is cell-based. How it is done: as §1
The next series concerns NCI-H1437. As to the kind of experiment: Cancer cell proliferation, Alamar Blue assay 72 hours, NCI-H1437. The following applies: Homo sapiens. It is filed as cell-based. As to the method: as §1
The test system of another series is H22. As to the kind of experiment: MTT assay 48 hours, H22. It is filed as cell-based. To be noted: Mus musculus. How it is done: as §1
The subject of a further series is LnCap. Nature of the series: MTT assay 48 hours, LnCap. The format is cell-based. The following applies: Homo sapiens. As to the method:
as §1

Another series concerns U87MG. As to the kind of experiment: MTT assay 48 hours, U87MG. The following applies: Homo sapiens, U-87 MG. It is filed as cell-based. As to the method: as §1
A short description of series [2]: Microsomal stability in human liver microsomes. The format is in vitro ADME. To be noted: 0 min. As to the method: Microsomal stability in vitro in different biologic media (liver microsomes, S9 fraction, hepatocytes) and species is ascertained to evaluate the rate at which a compound undergoes metabolism in the experimental in vitro conditions. […] Experimental conditions are briefly described here: the stability in human liver microsomes of several compounds was done over […] at 37° C. using pooled mixed gender human liver microsomes. These liver microsomes were prepared at 1.0 mg/ml of microsomal protein in a 100 mM potassium phosphate pH 7.4 buffer with 1 mM NADPH. The media was incubated at 37° C. with the compound in solution in DMSO. The concentration of the compound was followed by LC/MS-MS as a function of time. […] Testosterone was used as a positive control. The same experiment was performed with mouse, rat or dog liver microsomes instead of human liver microsomes.

The subject of another series is BX-PC-3. As to the kind of experiment: MTT assay 48 hours, BX-PC-3. It is filed as cell-based. To be noted: Homo sapiens, BXPC-3, BX-PC-3, MTT assay. How it is done:
as §1

The subject of the next series is HL-60 leukemia cells. As to the kind of experiment: In vitro growth inhibition, HL-60. The format is cell-based, human. The following applies: 1, 3, 10, 33 μM. As to the method:
(§2) The K562, HL-60, MDA-MB231, and melanoma (CRL-11174) human cancer cell lines were purchased from ATCC (American Tissue Type Culture Collection, Manassas, Va., United States of America). HeLa, A549, Lewis Lung Carcinoma, MDA-MB231, and melanoma cells were grown in Dulbecco's Modified Eagle Medium (DMEM) (Hyclone, Logan, Utah, United States of America) supplemented with 10% fetal bovine serum (Hyclone, Logan, Utah, United States of America) and 50 μg/mL gentamicin sulfate (Invitrogen, Carlsbad, Calif., United States of America). The HL-60, K562, and Jurkat cell lines were grown in RPMI-1640 medium (Hyclone, Logan, Utah, United States of America) supplemented with 10% fetal bovine serum and 50 μg/mL gentamicin sulfate. […]
(§3) Cells were collected 48 hours post-treatment, and cell number and viability were determined by trypan blue exclusion. […]

For a further series, the target named is PFKFB3 (Homo sapiens, UniProt Q16875). As to the kind of experiment: PFKFB3 enzyme-coupled kinetics assay (pyruvate kinase/lactate dehydrogenase, NADH consumption). To be noted: 150 μM.
In the next series the test system is K562 leukemia cells. As to the kind of experiment: In vitro growth inhibition, K562. The format is cell-based, human. To be noted: 1, 3, 10, 33 μM. As to the method: as §2, §3
The next series relates to glycolysis. The following applies: cited from earlier work.

As usually defined, the solubility is how much of the substance goes into solution per volume. A high value points to a readily soluble substance. What is called IC50 is the point on the concentration scale where inhibition reaches its midpoint. Higher therefore signals a need for much substance. In general, inhibition refers to the percentage by which the read-out fell short of the control. Read a high inhibition as strong suppression.

Sequence of PFKFB3 (Q16875 whole entry): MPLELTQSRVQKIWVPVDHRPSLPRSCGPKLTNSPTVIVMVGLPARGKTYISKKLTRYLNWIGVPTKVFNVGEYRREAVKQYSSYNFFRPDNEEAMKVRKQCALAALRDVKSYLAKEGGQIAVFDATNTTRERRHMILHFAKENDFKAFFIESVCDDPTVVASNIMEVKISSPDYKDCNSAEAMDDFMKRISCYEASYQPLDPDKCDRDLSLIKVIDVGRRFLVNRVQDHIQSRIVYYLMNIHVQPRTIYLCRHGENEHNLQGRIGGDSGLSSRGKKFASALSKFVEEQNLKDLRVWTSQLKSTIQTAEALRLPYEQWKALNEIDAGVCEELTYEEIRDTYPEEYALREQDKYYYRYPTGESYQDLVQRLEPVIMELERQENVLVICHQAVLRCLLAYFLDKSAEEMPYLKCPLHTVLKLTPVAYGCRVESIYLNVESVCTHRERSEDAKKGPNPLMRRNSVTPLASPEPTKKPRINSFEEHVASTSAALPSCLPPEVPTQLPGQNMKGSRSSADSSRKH
Description for PFKFB3: PFKFB3 activity was measured by an enzyme-coupled kinetics assay incorporating pyruvate kinase and lactate dehydrogenase as previously described. […] The assay measures NADH consumption spectrophotometrically as a loss of absorption at 340 nm with stoichiometry of 1 mol ATP: 1 mol NADH consumed. Assays were carried out in 96 well plates at 37° in 200 μL final volume containing 1XPFKFB3 reaction buffer (100 mM Tris-HCl, 100 μM EDTA, 5 mM KH2PO4; pH=7.4), 420 μM phophoenolpyruvate (PEP), 5 mM ATP, 400 μM NADH, 613 units of pyruvate kinase (PK), 1092 units of lactate dehydrogenase (LDH), increasing concentrations of fructose-6-phosphate (40-400 μM), and 15 μg of purified PFKFB3. […] Assays were measured using a BioTek POWERWAVE™ plate reader (BioTek Instruments, Inc., Winooski, Vt., United States of America) in kinetics mode over 15 minute periods to determine kinetic rate of PFKFB3. The enzyme kinetics module for SigmaPlot® 9.0 (SYSTAT Software, Inc., San Jose, Calif., United States of America) was used to calculate the kinetic parameters for PFKFB3 and 1 inhibition (Vmax, Km, and Ki). The Vmax is expressed in specific activity of PFKFB3 as nmol F6P×min^−1×mg^−1. […] The data represented are the mean±STD from triplicate measurements from two independent experiments.

In [1], `O=C(/C=C/c1ccc2cccc(O)c2n1)c1ccncc1` [ACT-PFK-070, 3-(8-Hydroxy-quinolin-2-yl)-1-pyridin-4-yl-propenone] displayed a solubility at 24 h of 100 µg/mL (≈ 362 µM). For the same compound, the IC50 with MiaPaca was 275 nM; with U937, 3600 nM; in the series on CT26, 2060 nM; in the series on Calu-6, 7400 nM; in the series with SK-BR-3, 1600 nM; in the series on NCI-H82, 4000 nM. Moreover, the IC50 with A549 came to 2680 nM; in the series on SK-N-SH, 1460 nM; with Jurkat, 1300 nM; in the series on BT474 it was 952 nM; in the series with NCI-H1437, 29300 nM; in the series on H22, 3940 nM. Moreover, the figures for the IC50 in the series with LnCap, in the series on U87MG and with BX-PC-3 were 1280 nM, 1680 nM and 1180 nM, respectively. Testing at 0.5 µM in the series with Jurkat cells gave an inhibition of 45%. In addition, the “Mean metabolized (%)” value in series [2] stood at 0%.
On to `O=C(/C=C/c1ccc(Cl)cc1)c1cccnc1` [Compound 2, 3-(4-chlorophenyl)-1-(3-pyridinyl)-2-propen-1-one], for which the cellular toxicity entry in the series with HL-60 leukemia cells and with K562 leukemia cells was “dose-dependent cellular toxicity” each time. Also, the “kinetic rate of PFKFB3 reduced compared to vehicle (EtOH)” value at PFKFB3 is recorded as 39.8%. The “kinetic rate of recombinant PFKFB3 as % of that with vehicle (EtOH)” value on PFKFB3 amounted to 39.8%.
Consider `O=CC[C@@H](O)[C@H](O)[C@H](O)CO` [Compound 2-DG, 2-deoxyglucose], for which, in the series with glycolysis, the “effective concentration of other inhibitors of glycolysis” value is “low mM”.
